Results as given in US20120029187A1, “HALOALKYLSULFONANILIDE DERIVATIVE” (Nissan Chemical Industries, Ltd., priority 2009, published 2012).

Columns and labels:
Format in all cases: in vivo
barnyardgrass [1] = experiment: Test Example 1: herbicidal effects in preemergence treatment under submerged conditions; details: dose 2.52 g/a
Summary of the method: (§1)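 Scoring 0 (<5% mortality) to 5 (≥90%) was done three weeks after preemergence application to the water surface of submerged (4 cm) alluvial soil, doses given as g per are. Weeds were seeded and 2.5-leaf rice transplanted on the treatment day; greenhouse at 25–30 °C.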

bulrush [2] = experiment: as above; details: dose 2.52 g/a
Summary of the method: as §1

ducksalad [3] = experiment: as above; details: dose 2.52 g/a
Summary of the method: as §1

transplanted rice = experiment: Test Example 1: preemergence treatment under submerged conditions, effect on crop; details: dose 2.52 g/a
Summary of the method: as §1

barnyardgrass [4] = experiment: Test Example 2: herbicidal effects during the vegetation period under submerged conditions; details: treatment during the vegetation period under submerged conditions; dose 2.52 g/a
Summary of the method: (§2)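 Barnyardgrass, bulrush and ducksalad were co-sown in alluvial soil flooded to 4 cm and grown in a greenhouse at 25 to 30° C. At the 1- or 2-leaf stage, water-diluted emulsifiable concentrates went onto the water surface at set doses (g/a). Herbicidal effect was scored three weeks later on a graded scale.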

bulrush [5] = experiment: as above; details: treatment during the vegetation period under submerged conditions; dose 2.52 g/a
Summary of the method: as §2

ducksalad [6] = experiment: as above; details: treatment during the vegetation period under submerged conditions; dose 2.52 g/a
Summary of the method: as §2

Italian ryegrass [7] = experiment: Test Example 3: herbicidal effects in soil treatment; details: dose 3.2 g/a
Summary of the method: (§3)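 Seeds were sown in sterilized diluvial soil and covered with about 1.5 cm of soil. Compounds, formulated as emulsifiable concentrates and diluted with water, were sprayed evenly over the soil surface at set doses in g/a. Herbicidal effect was scored on a rating scale three weeks later.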

barnyardgrass [8] = experiment: as above; details: dose 3.2 g/a
Summary of the method: as §3

beadstraw [9] = experiment: as above; details: dose 3.2 g/a
Summary of the method: as §3

common chickweed [10] = experiment: as above; details: dose 3.2 g/a
Summary of the method: as §3

common lambsquater [11] = experiment: as above; details: dose 3.2 g/a
Summary of the method: as §3

common ragweed [12] = experiment: as above; details: dose 3.2 g/a
Summary of the method: as §3

giant foxtail [13] = experiment: as above; details: dose 3.2 g/a
Summary of the method: as §3

large crabgrass [14] = experiment: as above; details: dose 3.2 g/a
Summary of the method: as §3

posumbu knotweed [15] = experiment: as above; details: dose 3.2 g/a
Summary of the method: as §3

redroot pigweed [16] = experiment: as above; details: dose 3.2 g/a
Summary of the method: as §3

velvetleaf [17] = experiment: as above; details: dose 3.2 g/a
Summary of the method: as §3

water foxtail [18] = experiment: as above; details: dose 3.2 g/a
Summary of the method: as §3

wild oat [19] = experiment: as above; details: dose 3.2 g/a
Summary of the method: as §3

Italian ryegrass [20] = experiment: Test Example 4: herbicidal effect in foliage treatment; details: dose 3.2 g/a
Summary of the method: (§4)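 Weeds and crops sown in sterilized diluvial soil under ~1.5 cm cover and grown in greenhouse at 25 to 30° C. At 14 days, water-diluted emulsifiable concentrate sprayed onto foliage at set doses (g/a); herbicidal effect scored on a rating scale three weeks after application.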

barnyardgrass [21] = experiment: as above; details: dose 3.2 g/a
Summary of the method: as §4

beadstraw [22] = experiment: as above; details: dose 3.2 g/a
Summary of the method: as §4

common chickweed [23] = experiment: as above; details: dose 3.2 g/a
Summary of the method: as §4

common lambsquater [24] = experiment: as above; details: dose 3.2 g/a
Summary of the method: as §4

common ragweed [25] = experiment: as above; details: dose 3.2 g/a
Summary of the method: as §4

giant foxtail [26] = experiment: as above; details: dose 3.2 g/a
Summary of the method: as §4

large crabgrass [27] = experiment: as above; details: dose 3.2 g/a
Summary of the method: as §4

posumbu knotweed [28] = experiment: as above; details: dose 3.2 g/a
Summary of the method: as §4

redroot pigweed [29] = experiment: as above; details: dose 3.2 g/a
Summary of the method: as §4

velvetleaf [30] = experiment: as above; details: dose 3.2 g/a
Summary of the method: as §4

water foxtail [31] = experiment: as above; details: dose 3.2 g/a
Summary of the method: as §4

wild oat [32] = experiment: as above; details: dose 3.2 g/a
Summary of the method: as §4

[33] = three weeks after the application

## CC(C)COC(=O)N(c1ccccc1CN1COC(C)(C)C(F)C1=O)S(=O)(=O)C(F)(F)F (stereo not drawn) [II-36]
Barnyardgrass [1]
  A: barnyardgrass, herbicidal effect (evaluation scale 0-5): 5 (mortality of 90% or above (nearly complete death))
Bulrush [2]
  B: bulrush, herbicidal effect (evaluation scale 0-5): 5 (mortality of 90% or above (nearly complete death))
Ducksalad [3]
  C: ducksalad, herbicidal effect (evaluation scale 0-5): 5 (mortality of 90% or above (nearly complete death))
Transplanted rice
  a: transplanted rice, effect on crop (evaluation scale 0-5): 0 (mortality of less than 5% (almost ineffective))
Barnyardgrass [4]
  A: barnyardgrass, herbicidal effect (evaluation scale 0-5): 5 (mortality of 90% or above (nearly complete death))
Bulrush [5]
  B: bulrush, herbicidal effect (evaluation scale 0-5): 5 (mortality of 90% or above (nearly complete death))
Ducksalad [6]
  C: ducksalad, herbicidal effect (evaluation scale 0-5): 5 (mortality of 90% or above (nearly complete death))
Italian ryegrass [7]
  H: Italian ryegrass, herbicidal effect (evaluation scale 0-5): 0 (mortality of less than 5% (almost ineffective))
Barnyardgrass [8]
  A: barnyardgrass, herbicidal effect (evaluation scale 0-5): 5 (mortality of 90% or above (nearly complete death))
Beadstraw [9]
  O: beadstraw, herbicidal effect (evaluation scale 0-5): 4 (mortality of at least 70% and less than 90%)
Common chickweed [10]
  N: common chickweed, herbicidal effect (evaluation scale 0-5): 4 (mortality of at least 70% and less than 90%)
Common lambsquater [11]
  L: common lambsquater, herbicidal effect (evaluation scale 0-5): 0 (mortality of less than 5% (almost ineffective))
Common ragweed [12]
  J: common ragweed, herbicidal effect (evaluation scale 0-5): 4 (mortality of at least 70% and less than 90%)
Giant foxtail [13]
  E: giant foxtail, herbicidal effect (evaluation scale 0-5): 3 (mortality of at least 40% and less than 70%)
Large crabgrass [14]
  D: large crabgrass, herbicidal effect (evaluation scale 0-5): 4 (mortality of at least 70% and less than 90%)
Posumbu knotweed [15]
  M: posumbu knotweed, herbicidal effect (evaluation scale 0-5): 4 (mortality of at least 70% and less than 90%)
Redroot pigweed [16]
  K: redroot pigweed, herbicidal effect (evaluation scale 0-5): 0 (mortality of less than 5% (almost ineffective))
Velvetleaf [17]
  I: velvetleaf, herbicidal effect (evaluation scale 0-5): 3 (mortality of at least 40% and less than 70%)
Water foxtail [18]
  G: water foxtail, herbicidal effect (evaluation scale 0-5): 5 (mortality of 90% or above (nearly complete death))
Wild oat [19]
  F: wild oat, herbicidal effect (evaluation scale 0-5): 0 (mortality of less than 5% (almost ineffective))
Italian ryegrass [20]; three weeks after application
  H: Italian ryegrass, herbicidal effect: 2 (mortality of at least 20% and less than 40%)
Barnyardgrass [21]; three weeks after application
  A: barnyardgrass, herbicidal effect: 5 (mortality of 90% or above (nearly complete death))
Beadstraw [22]; three weeks after application
  O: beadstraw, herbicidal effect: 3 (mortality of at least 40% and less than 70%)
Common chickweed [23]; three weeks after application
  N: common chickweed, herbicidal effect: 3 (mortality of at least 40% and less than 70%)
Common lambsquater [24]; three weeks after application
  L: common lambsquater, herbicidal effect: 1 (mortality of at least 5% and less than 20%)
Common ragweed [25]; three weeks after application
  J: common ragweed, herbicidal effect: 3 (mortality of at least 40% and less than 70%)
Giant foxtail [26]; three weeks after application
  E: giant foxtail, herbicidal effect: 3 (mortality of at least 40% and less than 70%)
Large crabgrass [27]; three weeks after application
  D: large crabgrass, herbicidal effect: 4 (mortality of at least 70% and less than 90%)
Posumbu knotweed [28]; three weeks after application
  M: posumbu knotweed, herbicidal effect: 2 (mortality of at least 20% and less than 40%)
Redroot pigweed [29]; three weeks after application
  K: redroot pigweed, herbicidal effect: 0 (mortality of less than 5% (almost ineffective))
Velvetleaf [30]; three weeks after application
  I: velvetleaf, herbicidal effect: 2 (mortality of at least 20% and less than 40%)
Water foxtail [31]; three weeks after application
  G: water foxtail, herbicidal effect: 4 (mortality of at least 70% and less than 90%)
Wild oat [32]; three weeks after application
  F: wild oat, herbicidal effect: 0 (mortality of less than 5% (almost ineffective))

## CCOC(=O)N(c1ccccc1CN1OCCCC1=O)S(=O)(=O)C(F)(F)F [III-13]
Barnyardgrass [1]
  A: barnyardgrass, herbicidal effect (evaluation scale 0-5): 5 (mortality of 90% or above (nearly complete death))
Bulrush [2]
  B: bulrush, herbicidal effect (evaluation scale 0-5): 5 (mortality of 90% or above (nearly complete death))
Ducksalad [3]
  C: ducksalad, herbicidal effect (evaluation scale 0-5): 5 (mortality of 90% or above (nearly complete death))
Transplanted rice
  a: transplanted rice, effect on crop (evaluation scale 0-5): 1 (mortality of at least 5% and less than 20%)
Barnyardgrass [4]
  A: barnyardgrass, herbicidal effect (evaluation scale 0-5): 5 (mortality of 90% or above (nearly complete death))
Bulrush [5]
  B: bulrush, herbicidal effect (evaluation scale 0-5): 5 (mortality of 90% or above (nearly complete death))
Ducksalad [6]
  C: ducksalad, herbicidal effect (evaluation scale 0-5): 5 (mortality of 90% or above (nearly complete death))
Italian ryegrass [7]
  herbicidal effect, H: Italian ryegrass: 5 (mortality of 90% or above (nearly complete death))
Barnyardgrass [8]
  herbicidal effect, A: barnyardgrass: 5 (mortality of 90% or above (nearly complete death))
Beadstraw [9]
  herbicidal effect, O: beadstraw: 0 (mortality of less than 5% (almost ineffective))
Common chickweed [10]
  herbicidal effect, N: common chickweed: 4 (mortality of at least 70% and less than 90%)
Common lambsquater [11]
  herbicidal effect, L: common lambsquater: 0 (mortality of less than 5% (almost ineffective))
Common ragweed [12]
  herbicidal effect, J: common ragweed: 5 (mortality of 90% or above (nearly complete death))
Giant foxtail [13]
  herbicidal effect, E: giant foxtail: 5 (mortality of 90% or above (nearly complete death))
Large crabgrass [14]
  herbicidal effect, D: large crabgrass: 5 (mortality of 90% or above (nearly complete death))
Posumbu knotweed [15]
  herbicidal effect, M: posumbu knotweed: 0 (mortality of less than 5% (almost ineffective))
Redroot pigweed [16]
  herbicidal effect, K: redroot pigweed: 3 (mortality of at least 40% and less than 70%)
Velvetleaf [17]
  herbicidal effect, I: velvetleaf: 5 (mortality of 90% or above (nearly complete death))
Water foxtail [18]
  herbicidal effect, G: water foxtail: 5 (mortality of 90% or above (nearly complete death))
Wild oat [19]
  herbicidal effect, F: wild oat: 3 (mortality of at least 40% and less than 70%)
Italian ryegrass [20]; [33]
  H: Italian ryegrass, herbicidal effect: 4 (mortality of at least 70% and less than 90%)
Barnyardgrass [21]; [33]
  A: barnyardgrass, herbicidal effect: 5 (mortality of 90% or above (nearly complete death))
Beadstraw [22]; [33]
  O: beadstraw, herbicidal effect: 4 (mortality of at least 70% and less than 90%)
Common chickweed [23]; [33]
  N: common chickweed, herbicidal effect: 4 (mortality of at least 70% and less than 90%)
Common lambsquater [24]; [33]
  L: common lambsquater, herbicidal effect: 0 (mortality of less than 5% (almost ineffective))
Common ragweed [25]; [33]
  J: common ragweed, herbicidal effect: 4 (mortality of at least 70% and less than 90%)
Giant foxtail [26]; [33]
  E: giant foxtail, herbicidal effect: 5 (mortality of 90% or above (nearly complete death))
Large crabgrass [27]; [33]
  D: large crabgrass, herbicidal effect: 5 (mortality of 90% or above (nearly complete death))
Posumbu knotweed [28]; [33]
  M: posumbu knotweed, herbicidal effect: 0 (mortality of less than 5% (almost ineffective))
Redroot pigweed [29]; [33]
  K: redroot pigweed, herbicidal effect: 0 (mortality of less than 5% (almost ineffective))
Velvetleaf [30]; [33]
  I: velvetleaf, herbicidal effect: 5 (mortality of 90% or above (nearly complete death))
Water foxtail [31]; [33]
  G: water foxtail, herbicidal effect: 5 (mortality of 90% or above (nearly complete death))
Wild oat [32]; [33]
  F: wild oat, herbicidal effect: 0 (mortality of less than 5% (almost ineffective))
